# Tests used:
# [1] = Dynamic vapor sorption (DVS): sorption and desorption of moisture; type: physicochemical
# Method: Investigations on the sorption and desorption of moisture (dynamic vapor sorption, DVS): DVS measurements were carried out on an apparatus of the type DVS 1000 from Porotec. The evaluation of the measurements was carried out using software from Surface Measurement Systems. At a temperature between 23° C. and 26° C., starting from a relative humidity of 50%, within 240 minutes the relative humidity first increased to 90% and then fell to 0%. This cycle was repeated a second time. The DVS charts shown are isothermal recordings (plots) of the change in the mass in % (change in mass—dry) as a function of the desired relative humidity in % (target RH). Correspondingly, the axes of the graphs are marked by ΔM [%] and RH [%]. The measurement curves of the first sorption are designated by 1-S, the subsequent first desorption by 1-D, the second sorption by 2-S and the second desorption by 2-D. Advantageously, mass changes between the sorption and desorption phase are as low as possible.
# [2] = Release in artificial intestinal juice; type: physicochemical; conditions: for release rate compared to the hydrochloride salt: in artificial intestinal juice; for Release in artificial intestinal juice, percent of the substance released: permeable bag, amount calculated on 100 mg free base
# Method: Investigations on release were carried out in a Sotax AT7 smart release apparatus with UV measurement (Perkin Elmer photometer).
# A vessel with Wood apparatus was used (for intrinsic release).
# A pressing of 0.5 cm^2 surface area (diameter 8 mm) was produced with a force of 200 N using approximately 100 mg of active ingredient.
# Release was carried out in a release medium, which is composed as described below: • Intestinal juice without pancreas powder, pH 6.8 (analogous to Ph. Eur.); 250.0 ml 6.8 g of potassium dihydrogenphosphate R+0.896 g of NaOH+water to 1000.0 ml.
# Release was carried out in a release volume of in each case 500±5 ml at a temperature of the release medium of 37±1° C. with a stirring speed of 100±5 rpm.
# The content determination was carried out by means of spectroscopic methods (UV spectroscopy, wavelength: 271 nm, cuvette: 10 mm). Sample taking was carried out manually.
# In this release experiment, the individual compounds were placed in a permeable bag in an amount in each case calculated on 100 mg of the free base.
# The results, expressed in percent of the substance released, are reproduced in the following tables. In this case, the compounds denote: HCl: hydrochloride; A: cinnamate; B: palmitate; C: decanoate; E: hemi-fumarate and F: hemi-sebacate.
molecule,measurement,setting,value
palmitate,ΔM Desorption,"[1]; 1st cycle, RH 0.0 %",0.0000%
same,ΔM Desorption,"[1]; 1st cycle, RH 10.0 %",0.0083%
same,ΔM Desorption,"[1]; 1st cycle, RH 20.0 %",0.0148%
same,ΔM Desorption,"[1]; 1st cycle, RH 30.0 %",0.0234%
same,ΔM Desorption,"[1]; 1st cycle, RH 40.0 %",0.0353%
same,ΔM Desorption,"[1]; 1st cycle, RH 50.0 %",0.0472%
same,ΔM Hysteresis,"[1]; 1st cycle, RH 50.0 %",0.0027%
same,ΔM Sorption,"[1]; 1st cycle, RH 50.0 %",0.0445%
same,ΔM Desorption,"[1]; 1st cycle, RH 60.0 %",0.0896%
same,ΔM Hysteresis,"[1]; 1st cycle, RH 60.0 %",0.0374%
same,ΔM Sorption,"[1]; 1st cycle, RH 60.0 %",0.0522%
same,ΔM Desorption,"[1]; 1st cycle, RH 70.0 %",0.1139%
same,ΔM Hysteresis,"[1]; 1st cycle, RH 70.0 %",0.0412%
same,ΔM Sorption,"[1]; 1st cycle, RH 70.0 %",0.0727%
same,ΔM Desorption,"[1]; 1st cycle, RH 80.0 %",0.1406%
same,ΔM Hysteresis,"[1]; 1st cycle, RH 80.0 %",0.0347%
same,ΔM Sorption,"[1]; 1st cycle, RH 80.0 %",0.1059%
same,ΔM Desorption,"[1]; 1st cycle, RH 90.0 %",0.1531%
same,ΔM Sorption,"[1]; 1st cycle, RH 90.0 %",0.1531%
same,ΔM Desorption,"[1]; 2nd cycle, RH 0.0 %",0.0172%
same,ΔM Sorption,"[1]; 2nd cycle, RH 0.0 %",0.0000%
same,ΔM Desorption,"[1]; 2nd cycle, RH 10.0 %",0.0303%
same,ΔM Hysteresis,"[1]; 2nd cycle, RH 10.0 %",0.0202%
same,ΔM Sorption,"[1]; 2nd cycle, RH 10.0 %",0.0101%
same,ΔM Desorption,"[1]; 2nd cycle, RH 20.0 %",0.0421%
same,ΔM Hysteresis,"[1]; 2nd cycle, RH 20.0 %",0.0211%
same,ΔM Sorption,"[1]; 2nd cycle, RH 20.0 %",0.0211%
same,ΔM Desorption,"[1]; 2nd cycle, RH 30.0 %",0.0552%
same,ΔM Hysteresis,"[1]; 2nd cycle, RH 30.0 %",0.0225%
same,ΔM Sorption,"[1]; 2nd cycle, RH 30.0 %",0.0326%
same,ΔM Desorption,"[1]; 2nd cycle, RH 40.0 %",0.0679%
same,ΔM Hysteresis,"[1]; 2nd cycle, RH 40.0 %",0.0237%
same,ΔM Sorption,"[1]; 2nd cycle, RH 40.0 %",0.0442%
same,ΔM Desorption,"[1]; 2nd cycle, RH 50.0 %",0.0837%
same,ΔM Hysteresis,"[1]; 2nd cycle, RH 50.0 %",0.0234%
same,ΔM Sorption,"[1]; 2nd cycle, RH 50.0 %",0.0602%
same,ΔM Desorption,"[1]; 2nd cycle, RH 60.0 %",0.1344%
same,ΔM Hysteresis,"[1]; 2nd cycle, RH 60.0 %",0.0573%
same,ΔM Sorption,"[1]; 2nd cycle, RH 60.0 %",0.0771%
same,ΔM Desorption,"[1]; 2nd cycle, RH 70.0 %",0.1640%
same,ΔM Hysteresis,"[1]; 2nd cycle, RH 70.0 %",0.0739%
same,ΔM Sorption,"[1]; 2nd cycle, RH 70.0 %",0.0902%
same,ΔM Desorption,"[1]; 2nd cycle, RH 80.0 %",0.1827%
same,ΔM Hysteresis,"[1]; 2nd cycle, RH 80.0 %",0.0495%
same,ΔM Sorption,"[1]; 2nd cycle, RH 80.0 %",0.1332%
same,ΔM Desorption,"[1]; 2nd cycle, RH 90.0 %",0.1771%
same,ΔM Sorption,"[1]; 2nd cycle, RH 90.0 %",0.1771%
same,ΔM Sorption,"[1]; 3rd cycle, RH 0.0 %",0.0172%
same,ΔM Sorption,"[1]; 3rd cycle, RH 10.0 %",0.0231%
same,ΔM Sorption,"[1]; 3rd cycle, RH 20.0 %",0.0306%
same,ΔM Sorption,"[1]; 3rd cycle, RH 30.0 %",0.0392%
same,ΔM Sorption,"[1]; 3rd cycle, RH 40.0 %",0.0498%
same,ΔM Sorption,"[1]; 3rd cycle, RH 50.0 %",0.0650%
same,release behaviour in artificial intestinal juice,[2]; Experiments B-1 and B-2,more intensely prolonged release
same,release rate compared to the hydrochloride salt,[2],decreased release rates compared to the hydrochloride salt
CN(C)CC1CCCCC1(O)c1cccc(O)c1.CN(C)CC1CCCCC1(O)c1cccc(O)c1.O=C(O)C=CC(=O)O (stereo not shown) [E-1],"Release in artificial intestinal juice, percent of the substance released",[2]; t 2 min,99.32%
same,"Release in artificial intestinal juice, percent of the substance released",[2]; t 4 min,100.25%
same,"Release in artificial intestinal juice, percent of the substance released",[2]; t 6 min,99.24%
same,"Release in artificial intestinal juice, percent of the substance released",[2]; t 8 min,99.47%
same,"Release in artificial intestinal juice, percent of the substance released",[2]; t 10 min,100.58%
same,"Release in artificial intestinal juice, percent of the substance released",[2]; t 12 min,99.42%
same,"Release in artificial intestinal juice, percent of the substance released",[2]; t 15 min,98.40%
same,"Release in artificial intestinal juice, percent of the substance released",[2]; t 30 min,100.24%
CCCCCCCCCC(=O)O.CN(C)CC1CCCCC1(O)c1cccc(O)c1 (stereo not shown) [decanoate],release rate compared to the hydrochloride salt,[2],decreased release rates compared to the hydrochloride salt

# From patent US20110251286A1, “Crystalline salts and/or co-crystals of O-desmethyltramadol” (GRUENENTHAL GmbH, priority 2010, published 2011)
